The results in this text go back to ChEMBL document CHEMBL5576061, “The role of the methoxy group in approved drugs” (Eur J Med Chem, 2024).

Human immunodeficiency virus type 1 integrase, sequence (Q7ZJM1 whole entry): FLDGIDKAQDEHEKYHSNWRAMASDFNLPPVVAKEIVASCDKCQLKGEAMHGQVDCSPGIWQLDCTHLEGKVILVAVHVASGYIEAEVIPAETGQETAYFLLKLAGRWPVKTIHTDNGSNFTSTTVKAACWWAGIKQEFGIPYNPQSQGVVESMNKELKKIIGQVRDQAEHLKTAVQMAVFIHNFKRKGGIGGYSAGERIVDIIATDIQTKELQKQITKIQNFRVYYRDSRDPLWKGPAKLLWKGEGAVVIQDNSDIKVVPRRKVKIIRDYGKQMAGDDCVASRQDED
T1 sequence (P29597 whole entry): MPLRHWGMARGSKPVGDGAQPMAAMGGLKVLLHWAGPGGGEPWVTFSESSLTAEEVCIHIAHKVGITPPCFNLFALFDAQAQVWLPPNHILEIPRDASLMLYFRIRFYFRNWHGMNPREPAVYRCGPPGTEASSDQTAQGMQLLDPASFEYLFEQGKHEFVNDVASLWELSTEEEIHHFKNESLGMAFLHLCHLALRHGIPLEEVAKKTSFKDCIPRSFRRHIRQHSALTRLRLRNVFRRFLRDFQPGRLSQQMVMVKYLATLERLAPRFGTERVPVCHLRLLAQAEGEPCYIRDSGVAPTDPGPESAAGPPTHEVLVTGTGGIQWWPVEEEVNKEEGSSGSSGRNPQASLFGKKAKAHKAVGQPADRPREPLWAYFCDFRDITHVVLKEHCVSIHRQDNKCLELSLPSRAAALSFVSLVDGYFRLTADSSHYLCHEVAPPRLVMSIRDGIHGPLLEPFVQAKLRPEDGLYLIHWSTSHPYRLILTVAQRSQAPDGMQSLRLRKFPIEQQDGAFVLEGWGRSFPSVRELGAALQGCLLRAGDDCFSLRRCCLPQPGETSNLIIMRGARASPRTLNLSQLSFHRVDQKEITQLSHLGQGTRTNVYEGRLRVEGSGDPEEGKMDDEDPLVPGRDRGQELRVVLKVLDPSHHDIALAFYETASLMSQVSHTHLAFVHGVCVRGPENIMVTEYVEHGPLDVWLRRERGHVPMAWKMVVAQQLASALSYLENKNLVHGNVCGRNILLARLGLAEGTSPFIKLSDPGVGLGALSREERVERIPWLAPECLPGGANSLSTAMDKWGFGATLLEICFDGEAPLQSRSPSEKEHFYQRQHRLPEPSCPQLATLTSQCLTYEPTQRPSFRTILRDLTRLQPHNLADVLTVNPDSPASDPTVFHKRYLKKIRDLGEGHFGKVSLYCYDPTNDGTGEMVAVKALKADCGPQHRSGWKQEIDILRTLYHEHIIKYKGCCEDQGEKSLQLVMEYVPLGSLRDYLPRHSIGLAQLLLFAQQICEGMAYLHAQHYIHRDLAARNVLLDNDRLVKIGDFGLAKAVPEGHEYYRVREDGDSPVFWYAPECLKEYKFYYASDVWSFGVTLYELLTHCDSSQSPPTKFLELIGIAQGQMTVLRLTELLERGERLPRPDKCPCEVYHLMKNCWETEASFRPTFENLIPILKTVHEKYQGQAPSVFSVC

In one assay the test system is Human immunodeficiency virus 1. As to the kind of experiment: Antiviral activity against HIV-1 HTLV-IIIB infected in human MT4 cells assessed as reduction in virus induced cytopathic effect by immunofluorescence assay. The format is functional, organism-based. The settings on record: Human immunodeficiency virus 1, MT4. (Cytopathic effects are the visible damage that an infection or toxin causes in cultured cells.)
Turning to `C=C[C@@H]1C[C@]1(NC(=O)[C@@H]1C[C@@H](Oc2ncc(OC)c3ccc(Cl)cc23)CN1C(=O)[C@@H](NC(=O)OC(C)(C)C)C(C)(C)C)C(=O)NS(=O)(=O)C1CC1`, the concentration giving a half-maximal response (EC50) – broadly, the concentration at which the effect is half-maximal – is 6 nM.

With `C=C[C@@H]1C[C@]1(NC(=O)[C@@H]1C[C@@H](Oc2nccc3ccc(Cl)cc23)CN1C(=O)[C@@H](NC(=O)OC(C)(C)C)C(C)(C)C)C(=O)NS(=O)(=O)C1CC1`, the EC50 was 20 nM.

Consider `C=C[C@@H]1C[C@]1(NC(=O)[C@@H]1C[C@@H](Oc2nccc3ccccc23)CN1C(=O)[C@@H](NC(=O)OC(C)(C)C)C(C)(C)C)C(=O)NS(=O)(=O)C1CC1`, for which the EC50 came to 60 nM.

`C=C[C@@H]1C[C@]1(NC(=O)[C@@H]1C[C@@H](Oc2ncc(OC)c3ccccc23)CN1C(=O)[C@@H](NC(=O)OC(C)(C)C)C(C)(C)C)C(=O)NS(=O)(=O)C1CC1`: the EC50 came out at 19 nM.

A further assay addresses T1, Non-receptor tyrosine-protein kinase TYK2 (Homo sapiens, UniProt P29597). In words: Inhibition of TYK2 (unknown origin).
Details: not given
`CNC(=O)c1cnc(Nc2cc(C)c(F)cn2)cc1Nc1cccc(-c2ncn(C)n2)c1OC`: half-maximal inhibition (IC50) was put at 0.4 nM.

Take `[2H]C([2H])([2H])NC(=O)c1cnc(NC(=O)C2CC2)cc1Nc1cccc(-c2ncn(C)n2)c1OC`: it took 0.3 nM to reach half-maximal inhibition (IC50). The IC50 values of the last two compounds are within 1.5-fold of each other.

In the case of `CNC(=O)c1cnc(NC(=O)C2CC2)cc1Nc1cccc(-c2ncn(C)n2)c1OC`, the IC50 (usually the point on the concentration scale where inhibition reaches its midpoint) was 0.7 nM.

The next assay has as its system Human immunodeficiency virus 1. In words: Antiviral activity against HIV-1 3B infected in human MT4 cells assessed as reduction in virus-induced cytopathic effect incubated for 4 days by MTT assay. It is filed as functional, organism-based. The settings on record: Human immunodeficiency virus 1, 3B, MT4, 96 h.
Turning to `CNC(=O)c1ccc(OC)c2c(C(=O)C(=O)N3CCN(C(=O)c4ccccc4)CC3)c[nH]c12`, the EC50 was determined as 0.76 nM.

On to `CNC(=O)c1ncc(OC)c2c(C(=O)C(=O)N3CCN(C(=O)c4ccccc4)CC3)c[nH]c12`, for which the half-maximal effective concentration (EC50) came out at 0.28 nM.

The next assay has as its target Human immunodeficiency virus type 1 integrase (Human immunodeficiency virus 1, UniProt Q7ZJM1). In words: Inhibition of HIV-1 integrase.
Details: not given
For `C=C[C@@H]1C[C@]1(NC(=O)[C@@H]1C[C@@H](Oc2nccc3ccc(Cl)cc23)CN1C(=O)[C@@H](NC(=O)OC(C)(C)C)C(C)(C)C)C(=O)NS(=O)(=O)C1CC1`, the IC50 is 12 nM. This lies in the double-digit nanomolar range.

In turn, `C=C[C@@H]1C[C@]1(NC(=O)[C@@H]1C[C@@H](Oc2nccc3ccccc23)CN1C(=O)[C@@H](NC(=O)OC(C)(C)C)C(C)(C)C)C(=O)NS(=O)(=O)C1CC1` had an IC50 of 7 nM.

The compound `C=C[C@@H]1C[C@]1(NC(=O)[C@@H]1C[C@@H](Oc2ncc(OC)c3ccccc23)CN1C(=O)[C@@H](NC(=O)OC(C)(C)C)C(C)(C)C)C(=O)NS(=O)(=O)C1CC1` gave an IC50 of 2 nM.

Molecular target in another assay: not listed separately
As to the kind of experiment: Inhibition of tyrosine kinase (unknown origin).
Details: not given
Details: species or system Homo sapiens.
`COc1cc(Nc2c(C#N)cnc3cc(OCCCN4CCN(C)CC4)c(OC)cc23)c(Cl)cc1Cl` [BOSUTINIB] gave an IC50 of 1.2 nM. This counts as single-digit nanomolar.

The compound `COc1cc2ncc(C#N)c(Nc3ccc(Cl)cc3Cl)c2cc1OC` registered an IC50 of 30 nM.

As to `CCOc1cc(Nc2c(C#N)cnc3cc(OC)c(OC)cc23)c(Cl)cc1Cl`, the IC50 worked out at 1200 nM.

As to `COc1cc2ncc(C#N)c(Nc3cc(O)c(Cl)cc3Cl)c2cc1OC`, the IC50 stood at 190 nM.

In the case of `N#Cc1cnc2cc(O)c(O)cc2c1Nc1ccc(Cl)cc1Cl`, the IC50 was greater than 1000 nM.

In the case of `COc1ccc2c(Nc3ccc(Cl)cc3Cl)c(C#N)cnc2c1`, the IC50 was found to be 200 nM.

Turning to `N#Cc1cnc2ccccc2c1Nc1ccc(Cl)cc1Cl`, the IC50 is greater than 1000 nM.

Take `COc1ccc2ncc(C#N)c(Nc3ccc(Cl)cc3Cl)c2c1`: 320 nM corresponded to half-maximal inhibition (IC50).

As for `COc1cc(Nc2c(C#N)cnc3cc(OC)c(OC)cc23)c(Cl)cc1Cl`, the midpoint of inhibition, the IC50, lay at 4.3 nM.

On to `COc1cc(Nc2c(C#N)cnc3cc(OCCCN4CCOCC4)c(OC)cc23)c(Cl)cc1Cl`, for which the midpoint of inhibition, the IC50, lay at 0.8 nM.

In a further assay the test system is Hepatitis C virus. As to the kind of experiment: Antiviral activity against Hepatitis C virus genotype 1b infected in human Huh-7 cells assessed as reduction in viral infection.
Details: not given
The format is functional, organism-based, Hepacivirus hominis.
With `COc1ccc2c(c1)[C@@H]1C[C@]1(C(=O)N1C[C@@H](C)O[C@@H](C)C1)Cn1c-2c(C2CCCCC2)c2ccc(C(=O)NS(=O)(=O)N(C)C)cc21`, the concentration giving a half-maximal response (EC50) came out at 24 nM.

Another assay relates to Hepatitis C virus. As to the kind of experiment: Antiviral activity against Hepatitis C virus genotype 1a infected in human Huh-7 cells assessed as reduction in viral infection.
Details: not given
The format is functional, organism-based, Hepacivirus hominis.
For `COc1ccc2c(c1)[C@@H]1C[C@]1(C(=O)N1C[C@@H](C)O[C@@H](C)C1)Cn1c-2c(C2CCCCC2)c2ccc(C(=O)NS(=O)(=O)N(C)C)cc21`, the EC50 was determined as 12 nM.

The target in a further assay is T1, Non-receptor tyrosine-protein kinase TYK2. As to the kind of experiment: Inhibition of TYK2 (unknown origin) (575 to 869 residues) by HTRF assay.
Details: not given
Background: Time-resolved FRET reads energy transfer from a long-lived donor to a nearby acceptor.
`CNC(=O)c1cnc(Nc2ccc(F)cn2)cc1Nc1cccc(C(=O)NC)c1OC` registered an IC50 of 0.6 nM.

Compound `CNC(=O)c1cccc(Nc2cc(Nc3ccc(F)cn3)ncc2C(=O)NC)c1` showed an IC50 of 44 nM.

Another assay concerns Human immunodeficiency virus 1. In words: Antiviral activity against HIV-1 infected in human MT4 cells assessed as inhibition of viral growth. The settings on record: Human immunodeficiency virus 1, MT4. The format is functional, organism-based.
Regarding `O=C(O)c1c[nH]c2ccc(Cc3cccc(Cl)c3F)cc2c1=O`, the half-maximal effective concentration (EC50) was found to be 805 nM.

Regarding `O=C(O)c1cn(CCO)c2ccc(Cc3cccc(Cl)c3F)cc2c1=O`, the EC50 is 76.3 nM.

Regarding `O=C(O)c1cnc2ccc(Cc3ccccc3)cc2c1O`, the EC50 was greater than 30000 nM.
